Here are results for two compounds from US20170121683A1, “ARYL HYDROCARBON RECEPTOR DISRUPTION AND ENHANCEMENT” (priority 2015, published 2017).

The structures appear in SMILES notation.

What all share (type): cell-based, human
The subject of assay [1] is hESC-derived non-adherent hematopoietic progenitor cells. Description: Cell cycle analysis (EdU/propidium iodide flow cytometry). Particulars: Day 6+5, SR-1 or TCDD, n=3. As for the experimental part:
FIG. 10A. Non-adherent hematopoietic progenitor cells derived from hESCs were cultured in the presence of DMSO, SR-1, and TCDD until Day 6+5. Cell cycle phase was assessed using flow cytometry to determine the total percentage of G0/G1)(EdU^−PI^lo, S-phase (EdU^+PI^+), or G2/M (EdU^−PI^hi). Representative flow cytometry plots are shown. FIG. 10B. Quantification of cell cycle analysis, n=3, *p<0.05, **p<0.01, ***p<0.001 as assessed by two-way ANOVA+Tukey-Kramer multiple comparisons post-hoc test.
Spin EBs were differentiated into hemato-endothelial cells with non-adherent cells harvested on Day 6+5. Cells were cultured in a 24-well plate and harvested after 1 week for flow cytometry analysis. Cells were co-stained with anti-human CD34-PECy7 to monitor proliferation of HSPCs. For cell cycle analysis, Day 6+5 non-adherent cells derived from EBs were harvest and monitored for S-phase using the Click-iT EdU Alex Fluor 647 flow cytometry assay kit per manufacturer instructions. Prior to flow cytometry, cells were counterstained with 50 μg/mL propidium iodide supplemented with 100 μg/mL RNAse A (New England BioLabs, Ipswich, Mass.).
A general note: In flow cytometry, cells or beads pass a laser one at a time.

Assay [2] concerns non-adherent hematopoietic fractions of differentiating hESC-derived cells. The assay is described as follows: qRT-PCR of hematopoietic transcriptional regulators. The source says:
FIG. 9A. Non-adherent hematopoietic progenitor cells derived from hESCs differentiated in the presence of SR-1, TCDD, or DMSO controls were harvested at Day 6+5 and seeded at 50,000 cells/dish in a standard methylcellulose colony-forming unit assay (CFU). Colonies were counted for each treatment group following 2 weeks of culture and scored for the following morphological subsets: BFU-E: burst-forming unit-erythroid; CFU-E: colony-forming unit-erythroid; CFU-GM: colony-forming unit-granulocyte, macrophage, CFU-M: colony-forming unit-macrophage; CFU-GEMM: colony-forming unit-granulocyte, erythroid, macrophage, megakaryocyte. n=3, error bars represent SEM of the total number of colonies/50,000 cells seeded, *p<0.05 as assessed with one-way ANOVA+Tukey-Kramer multiple comparisons post-hoc test. FIG. 9B. Non-adherent hematopoietic progenitor cells derived from hESCs differentiated in the presence of SR-1, TCDD, or DMSO controls were harvested at Day 6+3, Day 6+6, and Day 6+9 time points and probed for gene expression by quantitative real-time PCR (qRT-PCR). For each gene, Ct values were normalized to GAPDH at each time point and data is presented as relative fold-change to DMSO treated controls. n=3, error bars represent SEM, *p<0.05, **p<0.01 using student's t-test.
Non-adherent cell fractions were harvested as previously described in the main text. Total RNA was harvested using the Qiashredder tissue homogenizer kit (Qiagen, Valencia, Calif.) with RNAeasy Mini Kit. RNA concentration and purity was assessed using a NanoDrop 2000 (ThermoFisher Scientific) spectrophotometer and subsequently revere transcribed with a SensiFAST cDNA Synthesis Kit (Bioline, Taunton, Mass.). qPCR was performed using the All-in-One qPCR Mix (GeneCopoeia, Rockville, Md.) and cDNA was used at 50 ng/uL per reaction for qRT-PCR using gene specific human primer pairs (Table 1). qPCR reactions were run on an StepOnePlus Real-Time PCR System thermocycler (ThermoFisher Scientific) in either technical duplicate or triplicate. Ct values were normalized to a GAPDH housekeeper for each sample. Data were then normalized relative to controls using the 2̂-(ΔΔCt) method.

The subject of assay [3] is H9 hESCs. The assay is described as follows: NK cell differentiation from hESCs, flow cytometry (Example 1). Particulars: 1 μM SR-1 or 10 nM TCDD in NK cell differentiation conditions, n=2. As for the experimental part:
H9 hESCs were differentiated as spin EB exposed to Stage I mesodermal induction media for 11 days and transferred to NK-cell differentiation media with either DMSO, 1 μM SR-1, or 10 nM TCDD treatment for an additional 14 and 21 days. At the indicated time points, non-adherent cells were harvested and analyzed for NK-cell immunophenotype (CD56^+CD45^+) by flow cytometry. Representative flow cytometry plots are shown from two biologically independent experiments.
H9 hESCs were differentiated into NK cells as previously described (Ni et al. Embryonic Stem Cell Immunobiol. Methods Protoc. Methods Mol. Biol. 1029, 33-41 (2013)). In brief, H9 hESCs were aggregated as spin-EBs and differentiated in Stage I mesodermal induction media for 11 days, with one-half media change with fresh cytokines on Day 6. […]
Harvested cells were incubated with PE-Cy7 CD34 (BD Biosciences, San Jose, Calif.) in conjunction with APC CD31, APC CD41a, APC CD43, or APC CD45 for 30 minutes at 4° C. in FACS buffer (DPBS containing 2% fetal bovine serum and 0.1% sodium azide). […] Cells were analyzed using an LSRII flow cytometer (BD Biosciences) and data were analyzed using FlowJo software (TreeStart, Ashland, Oreg.).

Consider `CC(C)n1cnc2c(NCCc3ccc(O)cc3)nc(-c3csc4ccccc34)nc21` [SR-1, StemReginin-1], for which, in assay [1], the “percentage of cells in G0/G1 phase (EdU−PIlow)” value is on record as 43.7%±1.82 and the “percentage of cells in S-phase (EdU+PI+)” value was 38.2%±1.00. Further, in assay [2] (Day 6+3), the “expression of GATA1, fold relative to DMSO controls” value is 2.58±0.40 fold and the “expression of GATA2, fold relative to DMSO controls” value was 6.85±0.74 fold. The “mean GATA2:GATA1” value in assay [2] (Day 6+3, SR-1 treatment) came out at 2.67. In assay [2] (all time points), the “expression of CMYB” value is on record as “significant increase”. The “CD56+CD45+ NK cells” value in assay [3] turned out to be 26.4%.
As for `Clc1cc2c(cc1Cl)Oc1cc(Cl)c(Cl)cc1O2` [TCDD, 2,3,7,8-tetrachlorodibenzo-p-dioxin], in assay [1], the “percentage of cells in G0/G1 phase (EdU−PIlow)” value was found to be 25.8±0.34% and the “percentage of cells in S-phase (EdU+PI+)” value was 38.2%±1.03. In addition, the “expression of GATA1, fold relative to DMSO controls” value in assay [2] (Day 6+3) amounted to 0.31±0.08 fold. Also, in assay [2] (Day 6+6), the “expression of GATA2, fold relative to DMSO controls” value amounted to 0.37±0.13 fold. The “expression of PU.1” value in assay [2] (each time point (Day 6+3, 6+6, 6+9)) is recorded as “reciprocal expression”. In addition, the “CD56+CD45+ NK cells” value in assay [3] is reported as 6.7%.
